Data set [1] deals with T1, MtFolB (Mycobacterium tuberculosis, UniProt P9WNC5).
T1 construct: made in house
Kind of data set: MtFolB aldolase activity inhibition, continuous fluorescence assay (IC50). The data set is classed as biochemical.

For data set [2], the target named is T1, MtFolB. The data set is described as follows: Mode of inhibition and inhibition constants on MtFolB aldolase activity (Lineweaver-Burk). The data set is classed as biochemical. The settings on record: towards DHNP; for Inhibition mode: Lineweaver-Burk plots; for Ki: enzyme-inhibitor complex, read-out: Kis; for Ki / Kii: 300 nM MtFolB; for Kii: enzyme-substrate-inhibitor complex.

The next data set relates to SaFolB. On the set-up: method as in PMID 15027862. Particulars: read-out: IC50 against SaFolB; cited from earlier work.
Data set [3] deals with 6-hydroxymethyl-7,8-dihydropterin pyrophosphokinase from S. aureus (SaHPPK). Set-up: method as in PMID 22276115. Particulars: read-out: IC50 against SaHPPK; cited from earlier work.

T1 sequence (P9WNC5 whole entry): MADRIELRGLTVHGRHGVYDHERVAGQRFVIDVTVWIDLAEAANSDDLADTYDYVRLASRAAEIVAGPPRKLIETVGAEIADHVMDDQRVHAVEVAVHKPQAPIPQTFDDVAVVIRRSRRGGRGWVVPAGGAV

Consider `Nc1nc2[nH]c(SCC(=O)c3ccc(Cl)cc3)nc2c(=O)[nH]1` [Compound 3b, 2-Amino-8-((2–(4-chlorophenyl)-2-oxoethyl)thio)-1,9-dihydro-6H-purin-6-one], for which the melting point (in general, the temperature, or range, at which the solid turns liquid) is 300 to 316 °C. For the same compound, the IC50 (usually the concentration that gives 50% inhibition) against MtFolB [1] stood at 300 nM. Besides, on MtFolB [2], the Inhibition mode entry is “Non-competitive”, the Ki is 400 ± 100 nM and the Kii is on record as 0.9 ± 0.2 µM.
Take `Nc1nc2[nH]c(SCc3ccc(F)cc3)nc2c(=O)[nH]1` [Compound 2d, 2-Amino-8-((4-fluorobenzyl)thio)-1,9-dihydro-6H-purin-6-one]: the melting point fell in the range of 299 to 300 °C. Besides, at MtFolB [1], the IC50 was 8000 nM.
As to `CCCc1ccc(NC(=O)CSc2nc3c(=O)[nH]c(N)nc3[nH]2)cc1` [Compound 4g, 2-((2-Amino-6-oxo-6,9-dihydro-1H-purin-8-yl)thio)-N-(4-propylphenyl)acetamide], it took 900 nM to reach half-maximal inhibition on MtFolB [1] (IC50).
As for `Nc1nc2[nH]c(SCc3ccc4ccccc4c3)nc2c(=O)[nH]1` [Compound 2b, 2-Amino-8-((naphthalen-2-ylmethyl)thio)-1,9-dihydro-6H-purin-6-one], the melting point was in the range of 286 to 287 °C. In addition, 1300 nM corresponded to half-maximal inhibition against MtFolB [1] (IC50). Besides, the “Improvement of activity (fold)” value on MtFolB [1] (IC50 compared to benzyl derivative 2a) is reported as “more than 5 fold”.
As for `Nc1nc2[nH]c(SCC(=O)Nc3ccc(Cl)cc3)nc2c(=O)[nH]1` [Compound 4e, 2-((2-Amino-6-oxo-6,9-dihydro-1H-purin-8-yl)thio)-N-(4-chlorophenyl)acetamide], the IC50 at MtFolB [1] came to 800 nM.
On the same count and under the same terms, then `Nc1nc2[nH]c(SCC(=O)Nc3ccc(F)cc3)nc2c(=O)[nH]1` [Compound 4d, 2-((2-Amino-6-oxo-6,9-dihydro-1H-purin-8-yl)thio)-N-(4-fluorophenyl)acetamide], with 2000 nM.
Regarding `Nc1nc2[nH]c(SCc3ccc(Cl)cc3)nc2c(=O)[nH]1` [Compound 2f, 2-Amino-8-((4-chlorobenzyl)thio)-1,9-dihydro-6H-purin-6-one], the melting point is 291 to 294 °C. Also, half-maximal inhibition on MtFolB [1] (IC50) required 2200 nM.
As to `COc1ccccc1C(=O)CSc1nc2nc(N)[nH]c(=O)c2[nH]1` [Compound 3c, 2-Amino-8-((2–(2-methoxyphenyl)-2-oxoethyl)thio)-1,9-dihydro-6H-purin-6-one], at MtFolB [1], the IC50 amounted to 1300 nM.
Compound `Nc1nc2[nH]c(SCc3ccc(Cl)c(Cl)c3)nc2c(=O)[nH]1` [Compound 2g] registered a melting point of 290 to 291 °C. In addition, 5500 nM corresponded to half-maximal inhibition at MtFolB [1] (IC50). At MtFolB [1] (IC50 compared to monosubstituted analog 2f), the IC50 fold higher was 2.5 fold.
In the case of `Nc1nc2[nH]c(SCC(=O)Nc3ccc4ccccc4c3)nc2c(=O)[nH]1` [Compound 4b, 2-((2-Amino-6-oxo-6,9-dihydro-1H-purin-8-yl)thio)-N-(naphthalen-2-yl)acetamide], the melting point lay within 286 to 289 °C. Besides, 700 nM corresponded to half-maximal inhibition at MtFolB [1] (IC50).
`Nc1nc2[nH]c(SCC(=O)Nc3ccc(Br)cc3)nc2c(=O)[nH]1` [Compound 4f, 2-((2-Amino-6-oxo-6,9-dihydro-1H-purin-8-yl)thio)-N-(4-bromophenyl)acetamide] had a melting point of more than 310 °C. In addition, at MtFolB [1], the IC50 was 500 nM. Besides, on MtFolB [2], the Inhibition mode entry is listed as “Competitive” and the Ki turned out to be 100 ± 30 nM.
`Nc1nc2nc(S)[nH]c2c(=O)[nH]1` [8-MG (1), 8-mercaptoguanine] showed an IC50 against MtFolB [1] of 300 nM. Further, on MtFolB [2], the Inhibition mode entry is “Non-competitive”, the Ki came out at 300 ± 100 nM and the Kii is listed as 0.6 ± 0.1 µM. In addition, the IC50 with SaFolB is 1000 nM. For the same compound, in data set [3], the IC50 was 41000 nM.
`Nc1nc2[nH]c(SCc3ccc(Br)cc3)nc2c(=O)[nH]1` [Compound 2h, 2-Amino-8-((4-bromobenzyl)thio)-1,9-dihydro-6H-purin-6-one]: the IC50 at MtFolB [1] amounted to 3000 nM.
Take `Nc1nc2[nH]c(SCc3ccccc3F)nc2c(=O)[nH]1` [Compound 2c, 2-Amino-8-((2-fluorobenzyl)thio)-1,9-dihydro-6H-purin-6-one]: the melting point fell in the range of 289 to 290 °C. The compound also gave an IC50 against MtFolB [1] of 8000 nM.
In turn, `Nc1nc2[nH]c(SCC(=O)c3ccccc3)nc2c(=O)[nH]1` [Compound 3a, 2-Amino-8-((2-oxo-2-phenylethyl)thio)-1,9-dihydro-6H-purin-6-one] yielded a melting point of more than 310 °C. For the same compound, it took 900 nM to reach half-maximal inhibition at MtFolB [1] (IC50).
At MtFolB [1], `Nc1nc2[nH]c(SCC(=O)NCc3ccccc3)nc2c(=O)[nH]1` [Compound 4c, 2-((2-Amino-6-oxo-6,9-dihydro-1H-purin-8-yl)thio)-N-benzylacetamide] had an IC50 of 12300 nM.
At MtFolB [1], `Nc1nc2[nH]c(SCC(=O)Nc3ccccc3)nc2c(=O)[nH]1` [Compound 4a, 2-((2-Amino-6-oxo-6,9-dihydro-1H-purin-8-yl)thio)-N-phenylacetamide] returned an IC50 of 2200 nM.
On the same count and under the same terms, the value for `Nc1nc2[nH]c(SCc3ccccc3Cl)nc2c(=O)[nH]1` [Compound 2e, 2-Amino-8-((2-chlorobenzyl)thio)-1,9-dihydro-6H-purin-6-one] was 4200 nM; that for `Nc1nc2[nH]c(SCc3ccccc3)nc2c(=O)[nH]1` [Compound 2a, 2-Amino-8-(benzylthio)-1,9-dihydro-6H-purin-6-one] was 7100 nM.
Turning to `CCCCCCCc1ccc(NC(=O)CSc2nc3c(=O)[nH]c(N)nc3[nH]2)cc1` [Compound 4h, 2-((2-Amino-6-oxo-6,9-dihydro-1H-purin-8-yl)thio)-N-(4-heptylphenyl)acetamide], the melting point is more than 310 °C. The IC50 against MtFolB [1] came to 400 nM. For the same compound, on MtFolB [2], the Inhibition mode result is on record as “Non-competitive”, the Ki came to 500 ± 100 nM and the Kii stood at 1.2 ± 0.2 µM.
